Laboratory results published in US6395757B1, “Method for treating hot flashes in humans” (priority 1998, dated 2002).

Legend:
[1] = transdermal, tamoxifen-treated women; cited from earlier work
[2] = Daily topical application of 0.5% glycopyrrolate lotion in a patient with menopausal hot flashes (Example 1); format: in vivo, human
Procedure: The patient is a person with a history of hot flashes and perspiration associated with menopause. They complained about profuse facial, scalp and anterior neck sweating that occurred randomly with the hot flashes. As a treatment, the patient was offered and consented to the application of 0.5% glycopyrrolate topical lotion, which they applied once daily to their forehead and face, sparing their mouth and eyes. The lotion consisted of 1.5 gm glycopyrrolate; 75 ml ethanol; 2.4 gm hydroxyethylcell; brought to a total volume of 300 ml with water and the pH adjusted to 2-4.5.

[3] = Daily topical application of 0.5% glycopyrrolate roll-on solution in tamoxifen-treated breast cancer patients (Examples 2 and 3); format: in vivo, human
Description: A person treated with tamoxifen for breast cancer described 8 months of hot flashes and perspiration that awakened them from sleep.
A person treated with tamoxifen for breast cancer described hot flashes and perspiration beginning on their scalp, which interfered with their sleep.

[4] = solution applied to the face of the patient; cited from earlier work
[5] = cited from earlier work
[6] = Example 2: person on tamoxifen, 0.5% roll-on solution daily to face
[7] = Example 3: person on tamoxifen, 0.5% roll-on solution daily to scalp and around hair line

Clc1cccc(Cl)c1N=C1NCCN1 [clonidine]
frequency and severity of hot flashes [1]: only a moderate effect

C[N+]1(C)CCC(OC(=O)C(O)(c2ccccc2)C2CCCC2)C1 (centres unmarked) [glycopyrrolate]
symptoms during continued use ([2]; daily topical roll-on lotion, subsequent 6 months): continued to alleviate their symptoms
perspiration associated with the hot flashes ([2]; person, menopause, 0.5% lotion once daily to forehead and face): complete resolution
hot flashes associated with menopause (patient report) ([2]; person, 0.5% lotion once daily to forehead and face): alleviated
quality of sleep [3, 6]: improvement in the quality of their sleep
symptoms (hot flashes and perspiration) [3, 6]: greatly relieved their symptoms
sleep [3, 7]: improved sleep
symptoms (hot flashes and perspiration) [3, 7]: greatly relieved their symptoms
gustatory sweating [4]: prevented the gustatory sweating

CC(=O)O[C@]1(C(C)=O)CC[C@H]2[C@@H]3C=C(C)C4=CC(=O)CC[C@]4(C)[C@H]3CC[C@@]21C [megestrol acetate]
frequency of hot flashes ([5]; low dose oral, men and women, short term study): reduce the frequency of hot flashes
side effect when taken long term ([5]; low dose, long term): chronic adrenal insufficiency can be a side effect
